Laboratory results taken from patent publication US12568972B2, “Pyridazinol compounds and derivatives, preparation methods, herbicidal compositions and applications thereof” (Qingdao Kingagroot Chemical Compound Co., Ltd., priority 2018, dated 2026).
Like-named read-outs stand apart in the source and are kept apart here.

Experiments:
Format in all cases: in vivo
[1] = tested on: Chenopodiaceae; experiment: Post-emergence test, weed control effect; settings: 504 h, Dose 300 g/ha, after 3 weeks, fresh weight inhibition, read-out: activity level of harmful plant destruction (growth inhibition rate), Chenopodiaceae
Method in brief: (§1)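 Weeds sown in soil-filled pots and sprayed at 2-3 leaf stage (2-3 weeks after sowing) with compound in acetone/Tween-80/water plus 80% vegetable oil methyl ester synergist at 1500 g/ha. After 3 weeks in the greenhouse, fresh-weight growth inhibition scored on a 0-10 scale (10 = completely dead).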

[2] = tested on: Setaria viridis; experiment: Post-emergence test, weed control effect; settings: 504 h, Dose 300 g/ha, after 3 weeks, fresh weight inhibition, read-out: activity level of harmful plant destruction (growth inhibition rate), Setaria viridis
Method in brief: as §1

[3] = tested on: Echinochloa crus-galli; experiment: Post-emergence test, weed control effect; settings: 504 h, Dose 300 g/ha, after 3 weeks, fresh weight inhibition, read-out: activity level of harmful plant destruction (growth inhibition rate), Echinochloa crus-galli
Method in brief: as §1

[4] = tested on: Galium aparine; experiment: Post-emergence test, weed control effect; settings: 504 h, Dose 300 g/ha, after 3 weeks, fresh weight inhibition, read-out: activity level of harmful plant destruction (growth inhibition rate), Galium aparine
Method in brief: as §1

[5] = tested on: Veronica polita; experiment: Post-emergence test, weed control effect; settings: Veronica polita, 504 h, Dose 300 g/ha, after 3 weeks, fresh weight inhibition, read-out: activity level of harmful plant destruction (growth inhibition rate), Veronica polita
Method in brief: as §1

[6] = tested on: Rorippa indica; experiment: Post-emergence test, weed control effect; settings: Rorippa indica, 504 h, Dose 300 g/ha, after 3 weeks, fresh weight inhibition, read-out: activity level of harmful plant destruction (growth inhibition rate), Rorippa indica
Method in brief: as §1

[7] = tested on: weeds; experiment: Control effect and synergistic effect of the mixture of (i) and (ii), postemergence (Gowing method); settings: for pest or weed control at 100 g/ha / pest or weed control at 50 g/ha: post-emergence, 480 h, read-out: Inhibitory effect of component (ii) when applied alone at same dose; for pest or weed control at 100 g/ha: 100 g a.i./ha; for Inhibitory effect of component (ii) when applied alone at same dose / pest or weed control at 50 g/ha: Abutilon theophrasti
From the text: Wherein, in the formula, X represented the fresh weight inhibition rate of the active ingredient A in a dosage of P, and Y represented the fresh weight inhibition rate of the active ingredient B in a dosage of Q. The statistic results are shown in Table 6.

[8] = 5 g a.i./ha, postemergence, 20 days after treatment
[9] = 50 g a.i./ha, postemergence, 20 days after treatment

With `Oc1cc(Cl)nnc1-c1ccccc1` [A, reference compound] the inhibition at 300 g/ha [1] was 50 to 60%, the inhibition at 300 g/ha [2] was 30 to 40% and the inhibition at 300 g/ha [3] was 0%. For the same compound, the inhibition at 300 g/ha [4] was 50 to 60%, the inhibition at 300 g/ha [5] was 30 to 40% and the inhibition at 300 g/ha [6] was 20 to 30%.
`O=C(Nc1ccc(F)cc1F)c1cccnc1Oc1cccc(C(F)(F)F)c1` [Diflufenican] was tested, and the pest or weed control at 100 g/ha ([7]; Veronica polita, postemergence, 20 days after treatment) was 45%.
`Cc1c(C(=O)c2cnn(C)c2O)ccc(S(C)(=O)=O)c1C1=NOCC1` [Topramezone] was tested, and the “Inhibitory effect of component (ii) when applied alone at same dose” value (“Inhibitory effect of component (ii)” for short) [7, 8] was 40%.
Work on `CS(=O)(=O)c1ccc(C(=O)C2C(=O)CCCC2=O)c(Cl)c1` [Sulcotrione] yielded a pest or weed control at 50 g/ha [7] of 30%.
With `Cn1[nH]c(C2CC2)c(C(=O)c2ccc(C(F)(F)F)c(N3CCCCC3=O)c2Cl)c1=O` [Huanbifucaotong] the “Inhibitory effect of component (ii)” value ([7]; 30 g a.i./ha, postemergence, 20 days after treatment) was 30%.
`COc1c(Cl)ccc(-c2nc(C(=O)OCc3ccccc3)c(Cl)c(N)c2F)c1F` [Florpyrauxifen-benzyl] was tested, and the “Inhibitory effect of component (ii)” value ([7]; 2 g a.i./ha, postemergence, 20 days after treatment) was 45%.
In the case of `Cc1nn(C)c(O)c1C(=O)c1ccc(C(F)(F)F)cc1S(C)(=O)=O` [Pyrasulfotole], the “Inhibitory effect of component (ii)” value ([7]; 15 g a.i./ha, postemergence, 20 days after treatment) is reported as 50%.
For `CC(Oc1ccc(Cl)cc1Cl)C(=O)O` (stereo not shown) [Dichlorprop], the pest or weed control at 100 g/ha ([7]; Descurainia sophia, Sisymbrium sophia, postemergence, 20 days after treatment) was 40%.
For `CS(=O)(=O)c1ccc(C(=O)C2C(=O)CCCC2=O)c(Cl)c1COCC1CCCO1` (stereo not shown) [Tefuryltrione], the “Inhibitory effect of component (ii)” value [7, 9] was 40%.
With `CCC(Oc1ccc(F)c(C(F)(F)F)c1)C(=O)NCc1ccccc1` (stereo not shown) [Beflubutamid] the “Inhibitory effect of component (ii)” value ([7]; 200 g a.i./ha, postemergence, 20 days after treatment) was 40%.
In the case of `O=C(O)COc1nc(Cl)c(Cl)cc1Cl` [Triclopyr], the pest or weed control at 50 g/ha [7, 9] is reported as 35%.
With `CCn1ncc(C(=O)c2ccc(S(C)(=O)=O)c(OCCOC)c2C)c1OC(C)OC(=O)OC` (stereo not shown) [Tolpyralate] the “Inhibitory effect of component (ii)” value [7, 8] was 50%.
In the case of `Nc1c(Cl)c(Cl)nc(C(=O)O)c1Cl` [Picloram], the pest or weed control at 50 g/ha [7, 9] is reported as 40%.
With `CS(=O)(=O)c1ccc(C(=O)C2=C(Sc3ccccc3)C3CCC(C3)C2=O)c(Cl)c1` (stereo not shown) [Benzobicyclon] the “Inhibitory effect of component (ii)” value ([7]; 150 g a.i./ha, postemergence, 20 days after treatment) was 50%.
